In ChEMBL document CHEMBL1201862, “PubChem BioAssay data set” (2004):
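All cell lines were grown in 96-well plates and treated with compound for 48 hours. Here, GI50 denotes the concentration required for 50% inhibition of growth.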 Active and inactive are the calls of the source. No stated cut-off is given here; in the data, active = GI50 up to about 1.1 µM and inactive = higher. Non-standard residues stand in square brackets, D forms with d. Residues, ends and D or L forms follow the SMILES beside them. Ava = NCCCCC(=O)O; Mpa = O=C(O)CCS

What was measured:
Assay in all cases: NCI-60 cell line screen, 48 h
[1] = tested on: 786-0
[2] = tested on: CCRF-CEM
[3] = tested on: COLO 205
[4] = tested on: DU-145
[5] = tested on: Hs-578T
[6] = tested on: IGROV-1
[7] = tested on: K562
[8] = tested on: KM12
[9] = tested on: LOX IMVI
[10] = tested on: NCI-H23
[11] = tested on: OVCAR-3
[12] = tested on: RXF 393
[13] = tested on: SF-295
[14] = tested on: SF-539
[15] = tested on: SK-MEL-5
[16] = tested on: SNB-19
[17] = tested on: SW-620
[18] = tested on: U-251
[19] = tested on: UO-31
[20] = tested on: DLD-1

| Compound | GI50 [1] | GI50 [2] | GI50 [3] | GI50 [4] | GI50 [5] | GI50 [6] | GI50 [7] | GI50 [8] | GI50 [9] | GI50 [10] | GI50 [11] | GI50 [12] | GI50 [13] | GI50 [14] | GI50 [15] | GI50 [16] | GI50 [17] | GI50 [18] | GI50 [19] | GI50 [20] |
| --- | --- | --- | --- | --- | --- | --- | --- | --- | --- | --- | --- | --- | --- | --- | --- | --- | --- | --- | --- | --- |
| Nc1n[c-](N)[n+](=O)c(N)c1NCO | > 100 µM (inactive) | > 100 µM (inactive) | > 100 µM (inactive) | > 100 µM (inactive) | > 100 µM (inactive) | > 100 µM (inactive) | > 100 µM (inactive) | > 100 µM (inactive) | > 100 µM (inactive) | > 100 µM (inactive) | > 100 µM (inactive) | > 100 µM (inactive) | > 100 µM (inactive) | > 100 µM (inactive) | > 100 µM (inactive) | > 100 µM (inactive) | > 100 µM (inactive) | > 100 µM (inactive) | > 100 µM (inactive) | – |
| CCOC(=O)NC(NNc1ccc([N+](=O)[O-])cc1[N+](=O)[O-])(C(F)(F)F)C(F)(F)F | 43.9 µM (inactive) | 20.6 µM (inactive) | 16.1 µM (inactive) | 40.3 µM (inactive) | 34.4 µM (inactive) | 54.8 µM (inactive) | 25.1 µM (inactive) | 29.4 µM (inactive) | 60.1 µM (inactive) | 31.7 µM (inactive) | 31.6 µM (inactive) | 27.8 µM (inactive) | 59.7 µM (inactive) | 22.5 µM (inactive) | 60.8 µM (inactive) | 35.2 µM (inactive) | 40.3 µM (inactive) | 22 µM (inactive) | 21.9 µM (inactive) | – |
| CCOC(=O)CCC(C(=O)OCC)n1nc2ccc(Nc3c(C)[n+]([O-])c4cc(Cl)ccc4[n+]3[O-])cc2n1 (stereo unspecified) | 83.9 µM (inactive) | 49.3 µM (inactive) | 75.7 µM (inactive) | > 100 µM (inactive) | 59.6 µM (inactive) | > 100 µM (inactive) | 82 µM (inactive) | > 100 µM (inactive) | 58.3 µM (inactive) | > 100 µM (inactive) | > 100 µM (inactive) | 30.8 µM (inactive) | 82.4 µM (inactive) | > 100 µM (inactive) | 75 µM (inactive) | > 100 µM (inactive) | > 100 µM (inactive) | > 100 µM (inactive) | 81.8 µM (inactive) | – |
| CCn1c2ccccc2c2c(-c3ccccc3)cc3c(c21)C(=O)N(c1ccccc1)C3=O | > 100 µM (inactive) | > 100 µM (inactive) | > 100 µM (inactive) | – | – | > 100 µM (inactive) | > 100 µM (inactive) | > 100 µM (inactive) | > 100 µM (inactive) | > 100 µM (inactive) | > 100 µM (inactive) | – | > 100 µM (inactive) | > 100 µM (inactive) | > 100 µM (inactive) | 81.5 µM (inactive) | > 100 µM (inactive) | > 100 µM (inactive) | > 100 µM (inactive) | > 100 µM (inactive) |
| CCOC(=O)c1ccc(NC2Oc3cc4c(cc3C(c3cc(OC)c(OC)c(OC)c3)C2C)OCO4)cc1 (stereo unspecified) | 0.556 µM (active) | 0.371 µM (active) | 0.236 µM (active) | 0.48 µM (active) | 1.24 µM (inactive) | 0.48 µM (active) | 0.329 µM (active) | 0.396 µM (active) | 0.61 µM (active) | 0.695 µM (active) | 0.352 µM (active) | 0.552 µM (active) | 0.269 µM (active) | 0.271 µM (active) | 0.294 µM (active) | 0.617 µM (active) | 0.339 µM (active) | 0.433 µM (active) | 0.351 µM (active) | – |
| COC(=O)C1=C(c2cc(OC)c(OC)c(OC)c2)O[C@H](c2ccc3c(c2)OCO3)[C@H]1COC(C)=O | 29.4 µM (inactive) | 40.2 µM (inactive) | 10.7 µM (inactive) | – | – | 22.2 µM (inactive) | 21.3 µM (inactive) | 20.2 µM (inactive) | 32.1 µM (inactive) | 19.1 µM (inactive) | 30.5 µM (inactive) | – | 6.85 µM (inactive) | 26.3 µM (inactive) | 9.35 µM (inactive) | – | 25.2 µM (inactive) | 24.1 µM (inactive) | 20.9 µM (inactive) | 26.3 µM (inactive) |
| COc1cc(O)c(/C=N/N=C(\N)NO)c(OC)c1 | > 10 µM (inactive) | 5.57 µM (inactive) | > 10 µM (inactive) | 6.24 µM (inactive) | > 10 µM (inactive) | > 10 µM (inactive) | > 10 µM (inactive) | 8.18 µM (inactive) | 7.6 µM (inactive) | > 10 µM (inactive) | 5.5 µM (inactive) | 8.3 µM (inactive) | 4.92 µM (inactive) | > 10 µM (inactive) | > 10 µM (inactive) | > 10 µM (inactive) | > 10 µM (inactive) | > 10 µM (inactive) | > 10 µM (inactive) | – |
| O=C(N1CCOCC1)C1(c2ccccc2)CCNCC1 | > 100 µM (inactive) | 0.0488 µM (active) | > 100 µM (inactive) | > 100 µM (inactive) | > 100 µM (inactive) | > 100 µM (inactive) | > 100 µM (inactive) | > 100 µM (inactive) | > 100 µM (inactive) | > 100 µM (inactive) | > 100 µM (inactive) | > 100 µM (inactive) | > 100 µM (inactive) | > 100 µM (inactive) | > 100 µM (inactive) | > 100 µM (inactive) | > 100 µM (inactive) | > 100 µM (inactive) | > 100 µM (inactive) | – |
| O=C(/C=N/O)c1c(-c2ccccc2)[nH]c(-c2ccccc2)c1-c1ccccc1 | 54.1 µM (inactive) | 16.6 µM (inactive) | 17.2 µM (inactive) | 0.927 µM (active) | 20.9 µM (inactive) | 13.8 µM (inactive) | 14.1 µM (inactive) | 13.6 µM (inactive) | 10.8 µM (inactive) | 7.46 µM (inactive) | 13.1 µM (inactive) | 12.5 µM (inactive) | 14.3 µM (inactive) | 13.2 µM (inactive) | 16.2 µM (inactive) | 15.3 µM (inactive) | 19.8 µM (inactive) | 14.5 µM (inactive) | 14.3 µM (inactive) | – |
| CN(N)/N=N/c1[nH]cnc1C(N)=O | 12.1 µM (inactive) | 2.72 µM (inactive) | 17.5 µM (inactive) | 5.57 µM (inactive) | 37.5 µM (inactive) | 9.93 µM (inactive) | 1.92 µM (inactive) | 23.7 µM (inactive) | 1.65 µM (inactive) | 50.4 µM (inactive) | 17.5 µM (inactive) | > 100 µM (inactive) | 6.14 µM (inactive) | 13.7 µM (inactive) | 37.7 µM (inactive) | > 100 µM (inactive) | 9.75 µM (inactive) | > 66.1 µM (inactive) | 4 µM (inactive) | – |
| C[C@@H]1[C@@H](c2ccccc2)O[B-](c2ccccc2)(c2ccccc2)[N+]1(C)C | 66.7 µM (inactive) | 61.4 µM (inactive) | 33 µM (inactive) | > 100 µM (inactive) | 54.2 µM (inactive) | 96.8 µM (inactive) | 33 µM (inactive) | > 100 µM (inactive) | > 100 µM (inactive) | 90.6 µM (inactive) | 70.5 µM (inactive) | 34.7 µM (inactive) | > 100 µM (inactive) | 55.7 µM (inactive) | 27.5 µM (inactive) | > 100 µM (inactive) | 62.7 µM (inactive) | > 100 µM (inactive) | 22.7 µM (inactive) | – |
| Cc1ncc([N+](=O)[O-])n1CCNC(=O)CCCn1ccnc1[N+](=O)[O-] | > 100 µM (inactive) | > 100 µM (inactive) | > 100 µM (inactive) | > 100 µM (inactive) | > 100 µM (inactive) | > 100 µM (inactive) | > 100 µM (inactive) | > 100 µM (inactive) | > 100 µM (inactive) | > 100 µM (inactive) | > 100 µM (inactive) | > 100 µM (inactive) | > 100 µM (inactive) | > 100 µM (inactive) | > 100 µM (inactive) | > 100 µM (inactive) | > 100 µM (inactive) | > 100 µM (inactive) | > 100 µM (inactive) | – |
| COc1ccc(/C(C#N)=C/c2ccc(OC)c(OC)c2)cc1 | > 100 µM (inactive) | > 100 µM (inactive) | > 100 µM (inactive) | > 100 µM (inactive) | > 100 µM (inactive) | > 100 µM (inactive) | > 100 µM (inactive) | > 100 µM (inactive) | > 100 µM (inactive) | > 100 µM (inactive) | > 100 µM (inactive) | > 100 µM (inactive) | > 100 µM (inactive) | > 100 µM (inactive) | > 100 µM (inactive) | > 100 µM (inactive) | > 100 µM (inactive) | > 100 µM (inactive) | > 100 µM (inactive) | – |
| CC(NC(=O)CCS)C(=O)NC(C)C(=O)NC(Cc1c[nH]c2ccccc12)C(=O)NC(Cc1c[nH]cn1)C(=O)NC(CO)C(=O)NC(Cc1c[nH]c2ccccc12)C(=O)NCCCCC(=O)NC(C)C(=O)NC(CCC(N)=O)C(=O)NC(CCCCN)C(=O)NC(C)C(=O)NC(CCCNC(=N)N)C(=O)NC(CCCCN)C(N)=O (stereo unspecified) ([Mpa]AAWHSW[Ava]AQKARK-NH2; configuration not given here) | 31.6 µM (inactive) | 79.4 µM (inactive) | 43.5 µM (inactive) | 87.9 µM (inactive) | > 100 µM (inactive) | > 100 µM (inactive) | 26.9 µM (inactive) | 26.2 µM (inactive) | > 100 µM (inactive) | > 100 µM (inactive) | > 100 µM (inactive) | > 100 µM (inactive) | > 100 µM (inactive) | > 100 µM (inactive) | 35.6 µM (inactive) | > 100 µM (inactive) | 94.4 µM (inactive) | 43.2 µM (inactive) | > 100 µM (inactive) | – |
